Values of other authors as cited in US20030143291A1, “Herbal compositions and methods for diabetes and weight loss management” (priority 2002, published 2003).

How the values were obtained:
[1] = system: Methicillin-resistant s. aureus

## CC(C)C1=C2CCC(COC(=O)c3ccc(O)cc3)=CCC2(C)CC1 (centres unmarked) [Compound 6, 14-(4′-hydroxybenzoyloxy)dauc-4,8-diene]
Staphylococcus aures
  antimicrobial activity against Staphylococcus aures: antimicrobial activity
[1]
  antimicrobial activity against Methicillin-resistant s. aureus: antimicrobial activity
